Structures can show the parent of a compound that is named as a salt.
How the values were obtained:
[1] = tested on: Colon 26 mouse colon cancer cells; test: In vivo antitumor activity, Colon 26 subcutaneously transplanted to female CDF1 mice (Test 4); settings: caudal vein, tumor weight on day 15
Protocol: Prepared was a 1×10^7 cells/ml suspension of Colon 26 mouse colon cancer cells in HBSS (Hanks' Balanced Salt Solution). A 0.1 ml portion of the cell suspension was subcutaneously transplanted to a lateroabdominal part of each female CDF1 mouse. After the body weight of the mouse was measured on the following day of the transplantation of the tumor, a solution of a compound (5% glucose solution containing 5% of "Tween 80") was administered into the caudal vein of the mouse. On day 15, a tumor was excised and its weight was measured.
The percentage of the average tumor weight of each experiment group as calculated by supposing that the average tumor weight of the control group not administered with any drug was 100% was calculated as a T/C value.
Corresponding to each compound number, its T/C value is shown. The number in parentheses indicates the concentration of the drug when the T/C value was indicated.

mouse B16 melanoma cells = test: In vitro inhibition of proliferation of tumored cells, mouse B16 melanoma (Test 2); format: cell-based; settings: 3 days in 5% CO2 at 37° C., 96-well plate
Protocol: A description will next be made of antitumor activities of these compounds. Their antitumor activities were determined by measuring their in vitro inhibition of proliferation of tumored cells. Namely, mouse B16 melanoma cells were spread over a 96-well culture plate. One day later, each drug was applied. The melanoma cells were then incubated for 3 days in 5% CO2 at 37° C. Following the method reported in Cancer Res., 48, 589-601(1988), the concentration of the drug required to induce 50% inhibition on the proliferation was determined. As a comparative example, the results obtained from the application of distamycin are also shown.

P388 leukemia cells = test: In vivo antitumor activity, P388 leukemia intraperitoneally transplanted to female CDF1 mice (Test 3); set-up: species or system mouse; ILS: unit not given here; settings: intraperitoneal, one, five and nine days after transplantation; for Survived After 8 weeks/Tested Animals: concentration 3 (in parentheses)
Protocol: In vivo antitumor activities of these compounds were also studied. P388 leukemia cells (10^6 cells/mouse) were intraperitoneally transplanted to female CDF1 mice. One, five and nine days later, each compound was intraperitoneally administered (at 1, 3 or 10 mg/kg) to the mice. As a blank test, 5% glucose was intraperitoneally administered at 10 ml/kg to mice. Based on the group of the mice in the blank test as a control group, the effects of the individual drugs are shown in terms of ILS. The term "ILS" is represented by the following formula: [formula]
When test animals survived 8 weeks after the administration, the number of those survived was recorded without calculation of ILS.

COc1cccc2c1C(=O)c1c(O)c3c(c(O)c1C2=O)C[C@@](O)(C(=O)CO)C[C@@H]3O[C@H]1C[C@H](N)[C@H](O)[C@H](C)O1 [Adriamycin, adriamycin, reference compound]
T/C ([1]; 20 mg/Kg): 40%

Cn1cc(NC(=O)Cc2ccc(N(CCCl)CCCl)cc2)cc1-c1nc2cc(C(=O)NCCC(=N)N)ccc2[nH]1 [Compound 2, 1H-2-[4-[2-[4-[N,N-Bis(2-chloroethyl)amino]phenyl]acetylamino]-1-methylpyrrol-2-yl]benzimidazole-5-[N-(2-amidinoethyl)]carboxamide hydrochloride]
50% Inhibition (mouse B16 melanoma cells): 0.25 µg/mL | ILS (P388 leukemia cells; 1 mg/kg): 59 | Survived After 8 weeks/Tested Animals (P388 leukemia cells): 2/5

COc1cc(C(=O)Nc2cc(-c3nc4cc(C(=O)NCCC(=N)N)ccc4[nH]3)n(C)c2)ccc1N(CCCl)CCCl [Compound 6, 1H-2-[4-[3-Methoxy-4-[N,N-bis(2-chloroethyl)amino]benzoylamino]-1-methylpyrrol-2-yl]benzimidazole-5-[N-(2-amidinoethyl)]carboxamide hydrochloride]
50% Inhibition (mouse B16 melanoma cells): 0.02 µg/mL | ILS (P388 leukemia cells; 1 mg/kg): 94

Cn1cc(NC(=O)COc2ccc(N(CCCl)CCCl)cc2)cc1-c1nc2cc(C(=O)NCCC(=N)N)ccc2[nH]1 [Compound 13, 1H-2-[4-[4-[N,N-Bis(2-chloroethyl)amino]phenoxyacetylamino]-1-methylpyrrol-2-yl]benzimidazole-5-[N-(2-amidinoethyl)]carboxamide hydrochloride]
50% Inhibition (mouse B16 melanoma cells): 0.01 µg/mL | ILS (P388 leukemia cells; 1 mg/kg): 123 | Survived After 8 weeks/Tested Animals (P388 leukemia cells): 3/5

Cn1cc(NC(=O)c2ccccc2N(CCCl)CCCl)cc1-c1nc2cc(C(=O)NCCC(=N)N)ccc2[nH]1 [Compound 305, 1H-2-[4-[2-[N,N-Bis(2-chloroethyl)amino]benzoylamino]-1-methylpyrrol-2-yl)benzimidazole-5-[N-(2-amidinoethyl)]carboxamide hydrochloride]
50% Inhibition (mouse B16 melanoma cells): 4.2 µg/mL | ILS (P388 leukemia cells; 10 mg/kg): 22

Cn1cc(NC(=O)c2cc(N(CCCl)CCCl)cc(N(CCCl)CCCl)c2)cc1-c1nc2cc(C(=O)NCCC(=N)N)ccc2[nH]1 [Compound 310, 1H-2-[4-[3,5-Bis[N,N-bis(2-chloroethyl)amino]benzoylamino]-1-methylpyrrol-2-yl]benzimidazole-5-[N-(2-amidinoethyl)]carboxamide hydrochloride]
50% Inhibition (mouse B16 melanoma cells): 0.76 µg/mL | ILS (P388 leukemia cells; 1 mg/kg): 88

Cn1cc(NC(=O)CNC(=N)N)cc1-c1nc2cc(C(=O)NCCc3ccc(N(CCCl)CCCl)cc3)ccc2[nH]1 [Compound 1003, 1H-2-[4-(2-Guanidinoacetylamino)-1-methylpyrrol-2-yl]benzimidazole-5-[N-[2-[4-[N,N-bis(2-chloroethyl)amino]phenyl]ethyl]]carboxamide hydrochloride]
T/C ([1]; 0.3 mg/Kg): 41% | 50% Inhibition (mouse B16 melanoma cells): 0.018 µg/mL

Cc1cc(NC(=O)c2ccc3[nH]c(-c4cc(NC(=O)CNC(=N)N)cn4C)nc3c2)ccc1N(CCCl)CCCl [Compound 1005, 1H-2-[1-Methyl-4-(2-guanidinoacetylamino)pyrrol-2-yl]benzimidazole-5-[N-[3-methyl-4-[N,N-bis(2-chloroethyl)amino]phenyl]]carboxamide dihydrochloride]
T/C ([1]; 15 mg/Kg): 20% | 50% Inhibition (mouse B16 melanoma cells): 0.65 µg/mL

COc1cc(NC(=O)c2ccc3[nH]c(-c4cc(NC(=O)CNC(=N)N)cn4C)nc3c2)ccc1N(CCCl)CCCl [Compound 1009, 1H-2-[1-Methyl-4-(guanidinoacetylamino)pyrrol-2-yl]benzimidazole-5-[N-[3-methoxy-4-[N,N-bis(2-chloroethyl)amino]phenyl]]carboxamide dihydrochloride]
T/C ([1]; 10 mg/Kg): 29% | 50% Inhibition (mouse B16 melanoma cells): 2.31 µg/mL

Cn1cc(NC(=O)CNC(=N)N)cc1-c1nc2cc(C(=O)Nc3ccc(N(CCCl)CCCl)c(C#N)c3)ccc2[nH]1 [Compound 1013, 1H-2-[1-Methyl-4-(guanidinoacetylamino)pyrrol-2-yl]benzimidazole-5-[N-[3-cyano-4-[N,N-bis(2-chloroethyl)amino]phenyl]]carboxamide dihydrochloride]
T/C ([1]; 3 mg/Kg): 58% | 50% Inhibition (mouse B16 melanoma cells): 0.34 µg/mL

Cn1cc(NC(=O)CNC(=N)N)cc1-c1nc2cc(C(=O)Nc3ccc(N(CCCl)CCCl)c(Cl)c3)ccc2[nH]1 [Compound 1017, 1H-2-[1-Methyl-4-(guanidinoacetylamino)pyrrol-2-yl]benzimidazole-5-[N-[3-chloro-4-[N,N-bis(2-chloroethyl)amino]phenyl]]carboxamide dihydrochloride]
T/C ([1]; 3 mg/Kg): 30% | 50% Inhibition (mouse B16 melanoma cells): 0.78 µg/mL

Cc1cc(N(CCCl)CCCl)ccc1NC(=O)c1ccc2[nH]c(-c3cc(NC(=O)CNC(=N)N)cn3C)nc2c1 [Compound 1024, 1H-2-[1-Methyl-4-(guanidinoacetylamino)pyrrol-2-yl]benzimidazole-5-[N-[2-methyl-4-[N,N-bis(2-chloroethyl)amino]phenyl]]carboxamide dihydrochloride]
T/C ([1]; 10 mg/Kg): 61% | 50% Inhibition (mouse B16 melanoma cells): 0.586 µg/mL

CN(C)CCCC(=O)Nc1cc(-c2nc3cc(C(=O)Nc4ccc(N(CCCl)CCCl)cc4)ccc3[nH]2)n(C)c1 [Compound 1256, 1H-2-[1-Methyl-4-[4-(N,N-dimethylamino)butyrylamino]pyrrol-2-yl]benzimidazole-5-[N-[4-[N,N-bis-(2-chloroethyl)amino]phenyl]]carboxamide hydrochloride]
T/C ([1]; 15 mg/Kg): 60% | 50% Inhibition (mouse B16 melanoma cells): 4.67 µg/mL

Cn1cc(NC(=O)N2CCOCC2)cc1-c1nc2cc(C(=O)Nc3ccc(N(CCCl)CCCl)cc3)ccc2[nH]1 [Compound 1536, 1H-2-[1-Methyl-4-(4-morpholinecarbonyl)aminopyrrol-2-yl]benzimidazole-5-[N-[4-[N,N-bis(2-chloroethyl)amino]phenyl]]carboxamide]
50% Inhibition (mouse B16 melanoma cells): 0.53 µg/mL

Cn1cc(NC(=O)CN2CCN(Cc3ccccc3)CC2)cc1-c1nc2cc(C(=O)Nc3ccc(N(CCCl)CCCl)cc3)ccc2[nH]1 [Compound 1585, 1H-2-[1-Methyl-4-[(4-benzylpiperazinyl)acetylamino]pyrrol-2-yl]benzimidazole-5-[N-[4-[N,N-bis(2-chloroethyl)amino]phenyl]]carboxamide]
50% Inhibition (mouse B16 melanoma cells): 0.1 µg/mL

Cn1cc(NC(=O)CCn2ccnc2)cc1-c1nc2cc(C(=O)Nc3ccc(N(CCCl)CCCl)cc3)ccc2[nH]1 [Compound 1589, 1H-2-[1-Methyl-4-[[3-(imidazol-1-yl)propionyl]amino]pyrrol-2-yl]benzimidazole-5-[N-[4-[N,N-bis(2-chloroethyl)]amino]phenyl]carboxamide]
50% Inhibition (mouse B16 melanoma cells): 0.41 µg/mL

Cn1cc(NC(=O)c2ncc[nH]2)cc1-c1nc2cc(C(=O)Nc3ccc(N(CCCl)CCCl)cc3)ccc2[nH]1 [Compound 1590, 1H-2-[1-Methyl-4-[2-imidazolylcarboxamido)-pyrrol-2-yl]benzimidazole-5-[N-[4-[N,N-bis(2-chloroethyl)amino]phenyl]]carboxamide]
50% Inhibition (mouse B16 melanoma cells): 0.53 µg/mL

Cn1cc(NC(=O)CNC(=N)N)cc1-c1nc2cc(C(=O)NCCCC(=O)Nc3ccc(N(CCCl)CCCl)cc3)ccc2[nH]1 [Compound 1592, 1H-2-[4-(Guanidinoacetyl)amino-1-methylpyrrol-2-yl]benzimidazole-5-[N-[3-[N-[4-[N,N-bis(2-chloroethyl)amino]phenyl]carboxamido]propyl]]carboxamide hydrochloride]
50% Inhibition (mouse B16 melanoma cells): 0.61 µg/mL

N=C(N)NCC(=O)Nc1cc(-c2nc3cc(C(=O)Nc4ccc(N(CCCl)CCCl)cc4)ccc3[nH]2)cs1 [Compound 1617, 1H-2-[5-(Guanidinoacetyl)aminothiophen-3-yl]benzimidazole-5-[N-[4-[N,N-bis(2-chloroethyl)amino]phenyl]]carboxamide dihydrochloride]
50% Inhibition (mouse B16 melanoma cells): 0.12 µg/mL

Cn1cc(NC(=O)c2ccc(N(CCCl)CCCl)cc2)cc1-c1nc2cc(C(=O)Nc3ccc(N(CCCl)CCCl)cc3)ccc2[nH]1 [Compound 2001, 1H-2-[4-[4-[N,N-Bis(2-chloroethyl)amino]benzoylamino]-1-methylpyrrol-2-yl]benzimidazole-5-[N-[4-[N,N-bis(2-chloroethyl)amino]phenyl]]carboxamide]
50% Inhibition (mouse B16 melanoma cells): 0.005 µg/mL | ILS (P388 leukemia cells; 10 mg/kg): 47

CCN(CCCl)c1ccc(NC(=O)c2ccc3[nH]c(-c4cc(NC(=O)c5ccc(N(CC)CCCl)cc5)cn4C)nc3c2)cc1.Cl [Compound 2089, 1H-2-[1-Methyl-4-[4-[N-ethyl,N-(2-chloroethyl)amino]benzoylamino]pyrrol-2-yl]benzimidazole-5-[N-[4-[N-ethyl,N-(2-chloroethyl)amino]phenyl]]carboxamidehydrochloride]
50% Inhibition (mouse B16 melanoma cells): 0.0057 µg/mL

From patent US5852011A, “Benzimidazole derivatives” (Mitsui Chemicals, Inc., priority 1994, dated 1998)
